The nature of series [1]: in vivo. The settings on record: rat, po, 10 mg/kg.
Series [2] can be described thus: in vivo. The conditions noted are these: rat, po, 10 mg/kg. The source holds these as a separate data set.
Series [3] in a line: in vitro. The conditions noted are these: rat, liver microsomes. Background: Liver microsomes are vesicles of endoplasmic reticulum, rich in cytochrome P450 enzymes.
The nature of series [4]: in vitro. The conditions noted are these: human, liver microsomes.

SMILES strings stand for the structures.

In general, Cmax refers to the maximum level reached in the sampled fluid or tissue. As a reminder, the AUC is the area under the concentration-time curve, a measure of exposure. A high value points to more exposure. By amount remaining is commonly meant what is left of the initial amount, in per cent. `Cc1cc(Nc2ncc(Cl)c(Nc3ccccc3S(=O)(=O)C(C)C)n2)c(OC(C)C)cc1C1CCNCC1` [CERITINIB]: in series [1], the peak concentration (Cmax) was 90 ng/mL. The AUC in series [2] amounted to 1400 ng·h/mL. For the same molecule, the values for the share remaining at 0.5 h, 1 µM in series [3] and in series [4] were 98% and 88%, respectively.

Values taken from ChEMBL document CHEMBL4715694, “Discovery of novel tetrahydroisoquinoline-containing pyrimidines as ALK inhibitors” (Bioorg Med Chem, 2016).
